Laboratory results published in ChEMBL document CHEMBL2413072, “Synthesis and in vitro anticancer studies of novel C-2 arylidene congeners of lantadenes” (2013).

How the values were obtained:
Type in all cases: functional
MDA-MB-468 = test: Growth inhibition of human MDA-MB-468 cells assessed as growth inhibition at 10 uM by sulforhodamine B assay; settings: read-out: GI
PC-3 [1] = test: Growth inhibition of human PC3 cells assessed as growth inhibition at 10 uM by sulforhodamine B assay; settings: read-out: GI
TK-10 = test: Growth inhibition of human TK10 cells assessed as growth inhibition at 10 uM by sulforhodamine B assay; settings: read-out: GI
SN12C = test: Growth inhibition of human SN12C cells assessed as growth inhibition at 10 uM by sulforhodamine B assay; settings: read-out: GI
CAKI-1 [2] = test: Growth inhibition of human CAKI-1 cells assessed as growth inhibition at 10 uM by sulforhodamine B assay; settings: read-out: GI
A498 = test: Growth inhibition of human A498 cells assessed as growth inhibition at 10 uM by sulforhodamine B assay; settings: read-out: GI
786-0 = test: Growth inhibition of human 786-0 cells assessed as growth inhibition at 10 uM by sulforhodamine B assay; settings: read-out: GI
SK-OV-3 = test: Growth inhibition of human SKOV3 cells assessed as growth inhibition at 10 uM by sulforhodamine B assay; settings: read-out: GI
CCRF-CEM = test: Growth inhibition of human CCRF-CEM cells assessed as cell growth at 10 uM by sulforhodamine B assay; settings: read-out: Activity
OVCAR-4 = test: Growth inhibition of human OVCAR4 cells assessed as growth inhibition at 10 uM by sulforhodamine B assay; settings: read-out: GI
OVCAR-3 [3] = test: Growth inhibition of human OVCAR3 cells assessed as growth inhibition at 10 uM by sulforhodamine B assay; settings: read-out: GI
SK-MEL-28 [4] = test: Growth inhibition of human SK-MEL-28 cells assessed as growth inhibition at 10 uM by sulforhodamine B assay; settings: read-out: GI
M14 = test: Growth inhibition of human M14 cells assessed as growth inhibition at 10 uM by sulforhodamine B assay; settings: read-out: GI
LOX IMVI = test: Growth inhibition of human LOXIMVI cells assessed as growth inhibition at 10 uM by sulforhodamine B assay; settings: read-out: GI
U-251 = test: Growth inhibition of human U251 cells assessed as growth inhibition at 10 uM by sulforhodamine B assay; settings: read-out: GI
SF-295 [5] = test: Growth inhibition of human SF295 cells assessed as growth inhibition at 10 uM by sulforhodamine B assay; settings: read-out: GI
SF-268 = test: Growth inhibition of human SF268 cells assessed as growth inhibition at 10 uM by sulforhodamine B assay; settings: read-out: GI
HT-29 = test: Growth inhibition of human HT-29 cells assessed as growth inhibition at 10 uM by sulforhodamine B assay; settings: read-out: GI
HCT-116 = test: Growth inhibition of human HCT116 cells assessed as growth inhibition at 10 uM by sulforhodamine B assay; settings: read-out: GI
[6] = Growth inhibition of human HCC2998 cells assessed as growth inhibition at 10 uM by sulforhodamine B assay; settings: HCC 2998, read-out: GI
NCI-H522 [7] = test: Growth inhibition of human NCI-H522 cells assessed as growth inhibition at 10 uM by sulforhodamine B assay; settings: read-out: GI
NCI-H460 = test: Growth inhibition of human NCI-H460 cells assessed as growth inhibition at 10 uM by sulforhodamine B assay; settings: read-out: GI
NCI-H322M = test: Growth inhibition of human NCI-H322M cells assessed as growth inhibition at 10 uM by sulforhodamine B assay; settings: read-out: GI
NCI-H23 = test: Growth inhibition of human NCI-H23 cells assessed as growth inhibition at 10 uM by sulforhodamine B assay; settings: read-out: GI
NCI-H226 [8] = test: Growth inhibition of human NCI-H226 cells assessed as growth inhibition at 10 uM by sulforhodamine B assay; settings: read-out: GI
RPMI-8226 [9] = test: Growth inhibition of human RPMI8226 cells assessed as growth inhibition at 10 uM by sulforhodamine B assay; settings: read-out: GI
MOLT-4 = test: Growth inhibition of human MOLT4 cells assessed as growth inhibition at 10 uM by sulforhodamine B assay; settings: read-out: GI
MDA-MB-231 = test: Growth inhibition of human MDA-MB-231 cells assessed as cell growth at 10 uM by sulforhodamine B assay; settings: read-out: Activity
MCF7 = test: Growth inhibition of human MCF7 cells assessed as cell growth at 10 uM by sulforhodamine B assay; settings: read-out: Activity
PC-3 [10] = test: Growth inhibition of human PC3 cells assessed as cell growth at 10 uM by sulforhodamine B assay; settings: read-out: Activity
CAKI-1 [11] = test: Growth inhibition of human CAKI-1 cells assessed as cell growth at 10 uM by sulforhodamine B assay; settings: read-out: Activity
[12] = Growth inhibition of human NCI-ADR-RES cells assessed as cell growth at 10 uM by sulforhodamine B assay; settings: read-out: Activity
OVCAR-8 = test: Growth inhibition of human OVCAR8 cells assessed as cell growth at 10 uM by sulforhodamine B assay; settings: read-out: Activity
OVCAR-5 = test: Growth inhibition of human OVCAR5 cells assessed as cell growth at 10 uM by sulforhodamine B assay; settings: read-out: Activity
OVCAR-3 [13] = test: Growth inhibition of human OVCAR3 cells assessed as cell growth at 10 uM by sulforhodamine B assay; settings: read-out: Activity
UACC-62 = test: Growth inhibition of human UACC62 cells assessed as cell growth at 10 uM by sulforhodamine B assay; settings: read-out: Activity
SK-MEL-28 [14] = test: Growth inhibition of human SK-MEL-28 cells assessed as cell growth at 10 uM by sulforhodamine B assay; settings: read-out: Activity
SK-MEL-2 = test: Growth inhibition of human SK-MEL-2 cells assessed as cell growth at 10 uM by sulforhodamine B assay; settings: read-out: Activity
MDA-MB-435 = test: Growth inhibition of human MDA-MB-435 cells assessed as cell growth at 10 uM by sulforhodamine B assay; settings: read-out: Activity
SF-539 = test: Growth inhibition of human SF539 cells assessed as cell growth at 10 uM by sulforhodamine B assay; settings: read-out: Activity
SF-295 [15] = test: Growth inhibition of human SF295 cells assessed as cell growth at 10 uM by sulforhodamine B assay; settings: read-out: Activity
HCT-15 = test: Growth inhibition of human HCT15 cells assessed as cell growth at 10 uM by sulforhodamine B assay; settings: read-out: Activity
[16] = Growth inhibition of human HCC2998 cells assessed as cell growth at 10 uM by sulforhodamine B assay; settings: HCC 2998, read-out: Activity
NCI-H522 [17] = test: Growth inhibition of human NCI-H522 cells assessed as cell growth at 10 uM by sulforhodamine B assay; settings: read-out: Activity
NCI-H226 [18] = test: Growth inhibition of human NCI-H226 cells assessed as cell growth at 10 uM by sulforhodamine B assay; settings: read-out: Activity
HOP-62 = test: Growth inhibition of human HOP62 cells assessed as cell growth at 10 uM by sulforhodamine B assay; settings: read-out: Activity
A549 = test: Growth inhibition of human A549/ATCC cells assessed as cell growth at 10 uM by sulforhodamine B assay; settings: read-out: Activity
RPMI-8226 [19] = test: Growth inhibition of human RPMI8226 cells assessed as cell growth at 10 uM by sulforhodamine B assay; settings: read-out: Activity

SMILES: CC1(C)C[C@@H](O)[C@]2(C(=O)O)CC[C@]3(C)C(=CC[C@@H]4[C@@]5(C)CCC(=O)C(C)(C)[C@@H]5CC[C@]43C)[C@@H]2C1
- inhibition of growth at 10 µM (MDA-MB-468): < 10%
- inhibition of growth at 10 µM (PC-3 [1]): 40.7%
- inhibition of growth at 10 µM (TK-10): < 10%
- inhibition of growth at 10 µM (SN12C): 16.6%
- inhibition of growth at 10 µM (CAKI-1 [2]): 15.2%
- inhibition of growth at 10 µM (A498): < 10%
- inhibition of growth at 10 µM (786-0): 13.8%
- inhibition of growth at 10 µM (SK-OV-3): < 10%
- growth at 10 µM (CCRF-CEM): 87.5%
- inhibition of growth at 10 µM (OVCAR-4): 14.1%
- inhibition of growth at 10 µM (OVCAR-3 [3]): < 10%
- inhibition of growth at 10 µM (SK-MEL-28 [4]): < 10%
- inhibition of growth at 10 µM (M14): < 10%
- inhibition of growth at 10 µM (LOX IMVI): < 10%
- inhibition of growth at 10 µM (U-251): 10.8%
- inhibition of growth at 10 µM (SF-295 [5]): 19.3%
- inhibition of growth at 10 µM (SF-268): < 10%
- inhibition of growth at 10 µM (HT-29): 16.8%
- inhibition of growth at 10 µM (HCT-116): 21.2%
- inhibition of growth at 10 µM [6]: < 10%
- inhibition of growth at 10 µM (NCI-H522 [7]): 19.1%
- inhibition of growth at 10 µM (NCI-H460): < 10%
- inhibition of growth at 10 µM (NCI-H322M): < 10%
- inhibition of growth at 10 µM (NCI-H23): < 10%
- inhibition of growth at 10 µM (NCI-H226 [8]): < 10%
- inhibition of growth at 10 µM (RPMI-8226 [9]): 29.8%
- inhibition of growth at 10 µM (MOLT-4): 21.3%
- growth at 10 µM (MDA-MB-231): 91.3%
- growth at 10 µM (MCF7): 81.4%
- growth at 10 µM (PC-3 [10]): 59.3%
- growth at 10 µM (CAKI-1 [11]): 84.8%
- growth at 10 µM [12]: 100%
- growth at 10 µM (OVCAR-8): 80.8%
- growth at 10 µM (OVCAR-5): 108%
- growth at 10 µM (OVCAR-3 [13]): 104%
- growth at 10 µM (UACC-62): 80.5%
- growth at 10 µM (SK-MEL-28 [14]): 98%
- growth at 10 µM (SK-MEL-2): 96%
- growth at 10 µM (MDA-MB-435): 102%
- growth at 10 µM (SF-539): 106%
- growth at 10 µM (SF-295 [15]): 80.7%
- growth at 10 µM (HCT-15): 75.4%
- growth at 10 µM [16]: 91%
- growth at 10 µM (NCI-H522 [17]): 80.9%
- growth at 10 µM (NCI-H226 [18]): 103%
- growth at 10 µM (HOP-62): 88.7%
- growth at 10 µM (A549): 79%
- growth at 10 µM (RPMI-8226 [19]): 70.2%

SMILES: C/C=C(/C)C(=O)O[C@@H]1CC(C)(C)C[C@H]2C3=CC[C@@H]4[C@@]5(C)CCC(=O)C(C)(C)[C@@H]5CC[C@@]4(C)[C@]3(C)CC[C@@]12C(=O)O [LANTADENE A]
- inhibition of growth at 10 µM (MDA-MB-468): 49.2%
- inhibition of growth at 10 µM (PC-3 [1]): 62.8%
- inhibition of growth at 10 µM (TK-10): 16.7%
- inhibition of growth at 10 µM (SN12C): 47.6%
- inhibition of growth at 10 µM (CAKI-1 [2]): 51.6%
- inhibition of growth at 10 µM (A498): 23.8%
- inhibition of growth at 10 µM (786-0): 55.5%
- inhibition of growth at 10 µM (SK-OV-3): < 10%
- growth at 10 µM (CCRF-CEM): 43.6%
- inhibition of growth at 10 µM (OVCAR-4): 23.1%
- inhibition of growth at 10 µM (OVCAR-3 [3]): 37.4%
- inhibition of growth at 10 µM (SK-MEL-28 [4]): 17.3%
- inhibition of growth at 10 µM (M14): 36.2%
- inhibition of growth at 10 µM (LOX IMVI): 38.2%
- inhibition of growth at 10 µM (U-251): 39.9%
- inhibition of growth at 10 µM (SF-295 [5]): 72.3%
- inhibition of growth at 10 µM (SF-268): 25.9%
- inhibition of growth at 10 µM (HT-29): 32.1%
- inhibition of growth at 10 µM (HCT-116): 66%
- inhibition of growth at 10 µM [6]: 38.6%
- inhibition of growth at 10 µM (NCI-H522 [7]): 33.9%
- inhibition of growth at 10 µM (NCI-H460): 48.5%
- inhibition of growth at 10 µM (NCI-H322M): 31.4%
- inhibition of growth at 10 µM (NCI-H23): 42%
- inhibition of growth at 10 µM (NCI-H226 [8]): 18%
- inhibition of growth at 10 µM (RPMI-8226 [9]): 83.3%
- inhibition of growth at 10 µM (MOLT-4): 56.7%
- growth at 10 µM (MDA-MB-231): 75.7%
- growth at 10 µM (MCF7): 54.7%
- growth at 10 µM (PC-3 [10]): 37.2%
- growth at 10 µM (CAKI-1 [11]): 48.4%
- growth at 10 µM [12]: 73.1%
- growth at 10 µM (OVCAR-8): 63.7%
- growth at 10 µM (OVCAR-5): 92.4%
- growth at 10 µM (OVCAR-3 [13]): 62.6%
- growth at 10 µM (UACC-62): 49.9%
- growth at 10 µM (SK-MEL-28 [14]): 82.7%
- growth at 10 µM (SK-MEL-2): 77.1%
- growth at 10 µM (MDA-MB-435): 87.8%
- growth at 10 µM (SF-539): 78.2%
- growth at 10 µM (SF-295 [15]): 27.6%
- growth at 10 µM (HCT-15): 30.2%
- growth at 10 µM [16]: 61.4%
- growth at 10 µM (NCI-H522 [17]): 66.1%
- growth at 10 µM (NCI-H226 [18]): 82%
- growth at 10 µM (HOP-62): 75.6%
- growth at 10 µM (A549): 39.2%
- growth at 10 µM (RPMI-8226 [19]): 16.6%
